In patent publication US12264134B2 (Merck Sharp & Dohme LLC, priority 2018, dated 2025):

Each compound was assayed against IDO1 (Homo sapiens, UniProt P14902) (assay: IDO1 Cellular Assay in HeLa Cells Stimulated with IFNγ). Conditions: read-out: HeLa Cell Potency, IC50.
Assay type: cell-based

IDO1, sequence (P14902 whole entry): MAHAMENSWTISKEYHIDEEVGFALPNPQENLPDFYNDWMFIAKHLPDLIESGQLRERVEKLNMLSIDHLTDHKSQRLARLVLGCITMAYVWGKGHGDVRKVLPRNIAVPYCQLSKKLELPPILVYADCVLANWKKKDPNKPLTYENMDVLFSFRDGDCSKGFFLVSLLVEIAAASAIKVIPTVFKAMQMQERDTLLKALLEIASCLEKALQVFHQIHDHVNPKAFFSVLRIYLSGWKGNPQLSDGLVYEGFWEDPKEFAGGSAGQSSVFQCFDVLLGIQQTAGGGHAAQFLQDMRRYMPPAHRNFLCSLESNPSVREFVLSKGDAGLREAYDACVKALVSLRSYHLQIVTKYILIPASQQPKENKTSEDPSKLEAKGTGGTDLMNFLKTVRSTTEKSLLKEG

SMILES | IC50 [nM]
Cc1cccc(N2CCN(C(=O)Cn3nc(C(=O)N4CC[C@H](O)[C@H](F)C4)c4c3CCCCC4)CC2)c1C [Example 412, 1-(4-(2,3-dimethylphenyl)piperazin-1-yl)-2-(3-((3R,4S)-3-fluoro-4-hydroxypiperidine-1-carbonyl)-5,6,7,8-tetrahydrocyclohepta[c]pyrazol-1(4H)-yl)ethanone] | 5.43
Cc1cccc(N2CCN(C(=O)Cn3nc(C(=O)N4CC[C@H](O)[C@@H](F)C4)c4c3CCCCC4)CC2)c1C [Example 413, 1-(4-(2,3-dimethylphenyl)piperazin-1-yl)-2-(3-((3S,4S)-3-fluoro-4-hydroxypiperidine-1-carbonyl)-5,6,7,8-tetrahydrocyclohepta[c]pyrazol-1(4H)-yl)ethanone] | 9.29
Cc1cccc(N2CCN(C(=O)Cn3nc(C(=O)N4CC[C@H](O)[C@@H](F)C4)c4c3C(O)CC4)CC2)c1C (stereo partly drawn) [Example 420, 1-(4-(2,3-dimethylphenyl)piperazin-1-yl)-2-(3-((3 S,4 S)-3-fluoro-4-hydroxypiperidine-1-carbonyl)-6-hydroxy-5,6-dihydrocyclopenta[c]pyrazol-1(4H)-yl)ethan-1-one] | 87.4
Cc1cccc(N2CCN(C(=O)Cn3nc(C(=O)N4CC[C@H](O)[C@@H](F)C4)c4c3CC(F)(F)C4)CC2)c1C [Example 424, 2-(5,5-difluoro-3-((3 S,4S)-3-fluoro-4-hydroxypiperidine-1-carbonyl)-5,6-dihydrocyclopenta[c]pyrazol-1(4H)-yl)-1-(4-(2,3-dimethylphenyl)piperazin-1-yl)ethan-1-one] | 413
O=C(Cn1nc(C(=O)N2CC[C@H](O)[C@H](F)C2)c2c1CCC2)N1CCN(C2CCCc3ccccc32)CC1 (stereo partly drawn) [Example 425, 2-(3-((3R,4S)-3-fluoro-4-hydroxypiperidine-1-carbonyl)-5,6-dihydrocyclopenta[c]pyrazol-1(4H)-yl)-1-(4-(1,2,3,4-tetrahydronaphthalen-1-yl)piperazin-1-yl)ethanone] | 565
C[C@@H]1CN(C(=O)c2nn(CC(=O)N3CCN(C4CCCc5ccccc54)CC3)c3c2CCC3)C[C@H](C)O1 (stereo partly drawn) [Example 428, 2-(3-((2S,6R)-2,6-dimethylmorpholine-4-carbonyl)-5,6-dihydrocyclopenta[c]pyrazol-1(4H)-yl)-1-(4-(1,2,3,4-tetrahydronaphthalen-1-yl)piperazin-1-yl)ethanone] | 85.7
O=C(Cn1nc(C(=O)N2CC[C@H](O)[C@@H](F)C2)c2c1CCC2)N1CCN(C2CCCc3ccccc32)CC1 (stereo partly drawn) [Example 433, 2-(3-((3S,4S)-3-fluoro-4-hydroxypiperidine-1-carbonyl)-5,6-dihydrocyclopenta[c]pyrazol-1(4H)-yl)-1-(4-(1,2,3,4-tetrahydronaphthalen-1-yl)piperazin-1-yl)ethanone] | 494
O=C(Cn1nc(C(=O)N2CC[C@H](O)[C@@H](F)C2)c2c1CCC2)N1CCN(C2CCCc3ccccc32)CC1 (stereo partly drawn) [Example 434, 2-(3-((3S,4S)-3-fluoro-4-hydroxypiperidine-1-carbonyl)-5,6-dihydrocyclopenta[c]pyrazol-1(4H)-yl)-1-(4-(1,2,3,4-tetrahydronaphalen-1-yl)piperazin-1-yl)ethanone] | 8050
O=C(Cn1nc(C(=O)N2CCC(O)CC2)c2c1CCC2)N1CCN(C2CCc3ccccc32)CC1 (stereo not drawn) [Example 435, 1-(4-(2,3-dihydro-1H-inden-1-yl)piperazin-1-yl)-2-(3-(4-hydroxypiperidine-1-carbonyl)-5,6-dihydrocyclopenta[c]pyrazol-1(4H)-yl)ethanone] | 264
O=C(Cn1nc(C(=O)N2CCC(O)(CF)CC2)c2c1CCC2)N1CCN(c2cccc3c(F)cccc23)CC1 [Example 444, 2-(3-(4-(fluoromethyl)-4-hydroxypiperidine-1-carbonyl)-5,6-dihydrocyclopenta[c]pyrazol-1(4H)-yl)-1-(4-(5-fluoronaphthalen-1-yl)piperazin-1-yl)ethan-1-one] | 298
Cc1c(N2CCN(C(=O)Cn3nc(C(=O)N4CCC(O)(CF)CC4)c4c3CCC4)CC2)ccc(F)c1Cl [Example 445, 1-(4-(3-chloro-4-fluoro-2-methylphenyl)piperazin-1-yl)-2-(3-(4-(fluoromethyl)-4-hydroxypiperidine-1-carbonyl)-5,6-dihydrocyclopenta[c]pyrazol-1(4H)-yl)ethan-1-one] | 5.31
C[C@@H]1CN(C(=O)c2nn(CC(=O)N3CCN(c4cccc5c4CC5)CC3)c3c2CCC3)C[C@H](C)O1 [Example 446, 1-(4-(bicyclo[4.2.0]octa-1(6),2,4-trien-2-yl)piperazin-1-yl)-2-(3-((2R,6S)-2,6-dimethylmorpholine-4-carbonyl)-5,6-dihydrocyclopenta[c]pyrazol-1(4H)-yl)ethanone] | 206
Cc1cccc(N2CCN(C(=O)Cn3nc(C(=O)N4C[C@@H](C)O[C@@H](C)C4)c4c3CCC4)CC23CC3)c1C [Example 447, 2-(3-((2R,6S)-2,6-dimethylmorpholine-4-carbonyl)-5,6-dihydrocyclopenta[c]pyrazol-1(4H)-yl)-1-(4-(2,3-dimethylphenyl)-4,7-diazaspiro[2.5]octan-7-yl)ethanone] | 12.7
Cc1cccc(N2CCN(C(=O)Cn3nc(C(=O)N4CCC(O)C(CO)C4)c4c3CCCC4)CC2)c1C (stereo not drawn) [Example 452, 1-(4-(2,3-dimethylphenyl)piperazin-1-yl)-2-(3-(4-hydroxy-3-(hydroxymethyl)piperidine-1-carbonyl)-4,5,6,7-tetrahydro-1H-indazol-1-yl) ethanone] | 1.05
CC(=O)NC1CCN(C(=O)c2nn(CC(=O)N3CCN(c4cccc(C)c4Cl)CC3)c3c2CCCC3)CC1 [Example 453, N-(1-(1-(2-(4-(2-chloro-3-methylphenyl)piperazin-1-yl)-2-oxoethyl)-4,5,6,7-tetra hydro-1H-indazole-3-carbonyl)piperidin-4-yl) acetamide] | 0.59
Cc1cccc(N2CCN(C(=O)Cn3nc(C(=O)N4CCC(O)(CO)CC4)c4c3CCCC4)CC2)c1C [Example 455, 1-(4-(2,3-dimethylphenyl)piperazin-1-yl)-2-(3-(4-hydroxy-4-(hydroxymethyl)piperidine-1-carbonyl)-4,5,6,7-tetrahydro-1H-indazol-1-yl)ethanone] | 3.32
Cc1c(F)ccc(N2CCN(C(=O)Cn3nc(C(=O)N4CCC(F)(CO)CC4)c4c3CCCC4)CC2)c1C [Example 458, 1-(4-(4-fluoro-2,3-dimethylphenyl)piperazin-1-yl)-2-(3-(4-fluoro-4-(hydroxy-methyl)piperidine-1-carbonyl)-4,5,6,7-tetrahydro-1H-indazol-1-yl)ethanone] | 0.95
Cc1c(F)ccc(N2CCN(C(=O)Cn3nc(C(=O)N4CC[C@H](O)[C@@H](F)C4)c4c3CCCC4)CC2)c1C [Example 459, 1-(4-(4-fluoro-2,3-dimethylphenyl)piperazin-1-yl)-2-(3-((3S,4S)-3-fluoro-4-hydroxypiperidine-1-carbonyl)-4,5,6,7-tetrahydro-1H-indazol-1-yl)ethanone] | 1.17
Cc1cccc(N2CCN(C(=O)Cn3nc(C(=O)N4CCC(O)CC4(C)C)c4c3CCCC4)CC2)c1C (stereo not drawn) [Example 461, 1-(4-(2,3-dimethylphenyl)piperazin-piperazin-1-yl)-2-(3-(4-hydroxy-2,2-dimethylpiperidine-1-carbonyl)-4,5,6,7-tetrahydro-1H-indazol-1-yl)ethanone] | 1.25
Cc1cccc(N2CCN(C(=O)Cn3nc(C(=O)N4CCC(F)(CO)CC4)c4c3CCCC4)CC2)c1C [Example 467, 1-(4-(2,3-dimethylphenyl)piperazin-1-yl)-2-(3-(4-fluoro-4-(hydroxymethyl)piperidine-1-carbonyl)-4,5,6,7-tetrahydro-1H-indazol-1-yl)ethanone] | 1.87
Cc1cccc(N2CCN(C(=O)Cn3nc(C(=O)N4CCC(NC(=O)OC(C)(C)C)CC4)c4c3CCCC4)CC2)c1C [Example 469, tert-butyl (1-(1-(2-(4-(2,3-dimethylphenyl)piperazin-1-yl)-2-oxoethyl)-4,5,6,7-tetrahydro-1H-indazole-3-carbonyl)piperidin-4-yl) carbamate] | 2.48
Cc1cccc(N2CCN(C(=O)Cn3nc(C(=O)N4CCO[C@H](CO)C4)c4c3CCCC4)CC2)c1C [Example 474, (S)-1-(4-(2,3-dimethylphenyl)piperazin-1-yl)-2-(3-(2-(hydroxymethyl)morpholine-4-carbonyl)-4,5,6,7-tetrahydro-1H-indazol-1-yl)ethanone] | 4.21
Cc1cccc(N2CCN(C(=O)Cn3nc(C(=O)N4CCC(O)(CF)CC4)c4c3CCC4)CC2)c1C [Example 481, 1-(4-(2,3-dimethylphenyl)piperazin-1-yl)-2-(3-(4-(fluoromethyl)-4-hydroxypiperidine-1-carbonyl)-5,6-dihydrocyclopenta[c]pyrazol-1(4H)-yl) ethanone] | 10.6
Cc1c(F)cccc1N1CCN(C(=O)Cn2nc(C(=O)N3CCC(O)CC3)c3c2CCC3)CC1 [Example 483, 1-(4-(3-fluoro-2-methylphenyl)piperazin-1-yl)-2-(3-(4-hydroxypiperidine-1-carbonyl)-5,6-dihydrocyclopenta[c]pyrazol-1(4H)-yl) ethanone] | 41.6
Cc1cccc(N2CCN(C(=O)Cn3nc(C(=O)N4CCC(O)(CF)C4)c4c3CCC4)CC2)c1C (stereo not drawn) [Example 485, 1-(4-(2,3-dimethylphenyl)piperazin-1-yl)-2-(3-(3-(fluoromethyl)-3-hydroxypyrrolidine-1-carbonyl)-5,6-dihydro-cyclopenta[c]pyrazol-1(4H)-yl)ethanone] | 47.5
Cc1c(F)cccc1N1CCN(C(=O)Cn2nc(C(=O)N3CC[C@H](O)[C@H](F)C3)c3c2CCC3)CC1 [Example 486, 1-(4-(3-fluoro-2-methylphenyl)piperazin-1-yl)-2-(3-((3R,4S)-3-fluoro-4-hydroxypiperidine-1-carbonyl)-5,6-dihydro-cyclopenta[c]pyrazol-1(4H)-yl)ethanone] | 128
Cc1ccccc1N1CCN(C(=O)Cn2nc(C(=O)N3C[C@@H](C)O[C@@H](C)C3)c3c2CCC3)CC1 [Example 487, 2-(3-((2S,6R)-2,6-dimethylmorpholine-4-carbonyl)-5,6-dihydro-cyclopenta[c]pyrazol-1(4H)-yl)-1-(4-(o-tolyl)piperazin-1-yl)ethanone,] | 51.4
